Entries after “also recorded” stand apart in the source; their conditions may differ.

The subject of one data set is HIV-1 (NL4-3 strain). The data set can be described thus: microbe, parasite or virus in culture. The format is cell-based. The settings on record: Human immunodeficiency virus 1, NL43, PBMC, PBMCs. Here is the method:
We also performed anti-HIV-1 entry assays to investigate the potential suppression by 3 of HIV-1 infection via its entry mechanism.
The Anti-HIV-1 entry assay was performed by measuring intercellular p24 antigen. Before the infection, PBMCs (2.5 × 10^6 cells/mL) were added into 96-well plates at 100 μL/well, then co-incubated with compounds of various concentrations for 2 h. PBMCs were then washed twice with PBS and infected with the NL4-3 strain of HIV-1 at an MOI of 0.02 for 2 h at 37 °C with 5% CO2 (CO2 incubator, Eppendorf, Hamburg, Germany). After two washes with PBS (1200 rpm, 20 °C, 5 min), the cells were re-suspended in 100 µL complete medium and incubated for 24 h. Subsequently, the PBMCs were washed and resuspended in 100 µL/well lysis buffer containing 1% protease inhibitor cocktail (Sigma-Aldrich, St. Louis, MO, USA). The intercellular p24 antigen was measured according to the protocol provided with the HIV-1 ELISA kit (PerkinElmer Inc. Waltham, MA, USA).

The next data set concerns the target T1, CD4 (Homo sapiens, UniProt P01730).
T1 construct: endogenous in cells; host or cells: SUP-T1 cells
The data set can be described thus: CD4 competitive binding assay (FITC anti-human CD4 antibody, SUP-T1 cells). Particulars: for IC50: SUP-T1 cells, anti-human CD4 antibody competition; for PInhibition (Experimental Data): transformed from % inhibition at 100 μM, presented as -ln. Here is the method:
We chose CD4-expressing SUP-T1 cells to perform the competitive CD4 binding assay. Non-labeled anti-human CD4 antibody (RPA-T4 clone, BioLegend, San Diego, CA, USA) was used as a positive control.
The SUP-T1 cells were cultured in RPMI1640 medium supplemented with 10% (v/v) fetal bovine serum (FBS), 100 IU penicillin, 0.1 mg/mL streptomycin, and 2 mM L-glutamine. After collecting and washing twice with fluorescence activated cell sorting (FACS) buffer (0.5% BSA, 0.05% sodium azide in PBS) by centrifugation, SUP-T1 cells were seeded in a 96-well v-bottom plate at 5 × 10^5 cells/well. The supernatant was discarded by centrifugation and the cell pellet was resuspended with 50 μL various 2× concentrations of test compounds and 50 μL fluorescein isothiocyanate (FITC) labeled anti-human CD4 antibody (RPA-T4 clone, BioLegend, San Diego, CA, USA). The plate was incubated for 40 min on ice. After incubation, the cells were washed twice with FACS buffer by centrifugation, and then resuspended with the assay buffer. The FACS buffer was added at a volume of 50 μL per well. The fluorescence (485EX/528EM) was recorded using a Synergy II plate reader (BioTek Instruments, Inc., Winooski, VT, USA). Experimental data were generated in duplicate each time, and from at least three independent experiments. The mean values of fluorescence were normalized and expressed as a percentage of the control group values. Binding curves and IC50 values were calculated by GraphPad Prism 7 (GraphPad Software Inc., La Jolla, CA, USA) and presented as the mean ± SEM.

The next data set relates to SUP-T1 cells. The data set can be described thus: SUP-T1 cell viability assay. The class given is cell-based. Particulars: up to 200 μM. Here is the method:
We also performed a cell viability assay to test the potential cytotoxicity of 3. In parallel with the competitive CD4 binding assay described above, the same densities of SUP-T1 cells were seeded and treated with the test compounds for the same duration.

For another data set, the system named is HIV-1 NL4-3 strain. The data set can be described thus: Anti-HIV-1 infection assay (CEM-GFP reporter cells, GFP fluorescence). The class given is cell-based. The settings on record: Human immunodeficiency virus 1, NL43, HIV-1 NL4-3, 4-5 days. The text has this: We performed anti-HIV-1 infection and anti-HIV-1 entry assays by measuring GFP expression and intracellular p24 antigen level. For the anti-HIV-1 infection assays, the CEM-GFP reporter cell line was used, and HIV-1 infection induced a 10- to 1000-fold increase in the relative fluorescence of the cells.
The CEM-GFP cells were obtained from the NIH AIDS program (NIH AIDS Reagent Program, Division of AIDS, NIAID, NIH: CEM-GFP Cells from Dr. Jacques Corbeil) and cultured in RPMI 1640 medium containing 10% FBS, 1% penicillin-streptomycin (Life Technologies, Carlsbad, CA, USA), 1% 200 mM L-glutamine (Mediatech-VWR, Aurora, CO, USA), and 500 µg/mL G418 (BioPioneer Inc, San Diego, CA, USA). After collecting and counting, the CEM-GFP cells were infected with HIV-1 NL4-3 strain (MOI 0.01) at 37 °C for 2–3 h, cells were then washed twice with PBS, and 10^5 cells/well were seeded into a 96-well plate in the presence of different concentrations of test compounds. After culturing at 37 °C with 5% CO2 for 4 or 5 days, the GFP fluorescence (485EX/528EM) was measured using a Synergy II microplate reader (BioTek Instruments, Inc., Winooski, VT, USA).

The next data set has as its system PBMCs. The data set can be described thus: PBMC viability assay (CellTiter-Blue). The settings on record: up to 150 μM. The format is cell-based. Here is the method: We employed a cell viability assay to test the potential cytotoxicity of 3. In parallel with the anti-HIV-1 assay described above, the same densities of PBMCs were seeded and treated with the test compounds for the same duration.
Blood samples were collected from healthy donors and diluted with an equal amount of 1× PBS. Approximately 15 mL Ficoll was transferred to a sterile 50 mL tube, and then overlaid with 15 mL diluted blood. After centrifugation (Centrifuge 5810R, Eppendorf, Hamburg, Germany) at 1800 rpm for 30 min at room temperature, the PBMCs were obtained and washed twice with 40 mL 1× PBS by centrifugation (1100 rpm, 10 min for each time) at room temperature. Cell pellets were resuspended in 50 mL RPMI 1640 supplemented with 10% FBS and 100 μg/mL Phytohemagglutinin (PHA, Sigma-Aldrich, St. Louis, MO, USA) and cultured for 24 h at 37 °C with 5% CO2. […]
In addition to the anti-HIV assays described above, the same numbers of PBMCs were seeded and treated with the test compounds for the same periods. After a 24 h incubation at 37 °C, the cell viability was determined using the CellTiter-Blue (Promega Co., Madison, WI, USA) cell viability assay. The fluorescence (560EX/590EM) was recorded using a Synergy II microplate reader.

The test system of a further data set is HIV-1. More on the design: method as in PMID 12207905. Particulars: cited from earlier work.
The test system of data set [1] is various cancer cell lines. More on the design: method as in PMID 26474275, PMID 22524450. Particulars: 100 μM; by increasing intracellular ROS level; cited from earlier work.
The subject of a further data set is CEM-GFP cell line. The data set can be described thus: CEM-GFP cell viability (CellTiter Blue). The format is cell-based. The settings on record: highest concentration 25 µM. The text has this:
Figure 3 The competitive CD4 binding assay results of analogs of 3 (A).
We also evaluated the anti-HIV-1 infection activity of 29 using the CEM-GFP reporter cell line.
In general terms: Alamar Blue is a resazurin reagent that responds to reducing activity.

The subject of data set [2] is HIV-1 nucleocapsid-p7 protein (NC-p7). Also on record: method as in PMID 12207905. The settings on record: cited from earlier work.
Where [3] appears, read: 100 μM, inhibition of anti-human CD4 antibody binding to SUP-T1 cells.

For `c1cc(CN2CCCNCCNCCCNCC2)ccc1CN1CCCNCCNCCCNCC1` [AMD3100, reference compound], the inhibition at 0.1 µM with HIV-1 (NL4-3 strain) (0.1 μM, read-out: Inhibition of HIV-1 entry (intracellular p24)) came to 57.6%.
Turning to `O=C(O)CCc1c2ccc(=O)c(O)c-2oc2c(O)c(O)ccc12` [Compound 3, 3-(4,5,6-trihydroxy-3-oxo-3H-xanthen-9-yl) propanoic acid], the inhibition at 100 µM at CD4 (setting [3]) was determined as 94.9%. In addition, the half-inhibitory concentration (IC50) at CD4 was determined as 45 µM; in the data set with HIV-1 NL4-3 strain, 10 µM; in the data set on HIV-1 (NL4-3 strain) (HIV-1 NL4-3, 24 h, read-out: IC50, HIV-1 entry inhibition (intracellular p24)), 9 µM. For the same compound, on CD4, the “PInhibition (Experimental Data)” value is given as 5.273. Further, the “Cytotoxicity in SUP-T1 cell viability assay” value in the data set on SUP-T1 cells is listed as “no cytotoxicity”; in the data set with SUP-T1 cells (listed as NSC119915), “not showing any cytotoxicity”. Besides, the “Cytotoxicity in PBMCs” value in the data set with PBMCs is recorded as “without a cytotoxicity effect; also recorded: no cytotoxicity; also recorded: did not show an ability to affect cell growth”. Moreover, in the data set on HIV-1 (inactive or weakly active), the “protection in anti-HIV-1 infection assay” value was 0–49%. In addition, the “growth inhibition of cancer cell lines” value in [1] is on record as “inhibit the growth”.
As to `Cc1cc2c(=O)cc(-c3ccccc3)oc2c(C(=O)O)c1C` [Compound 27], the “PInhibition (Experimental Data)” value at CD4 was 4.024.
Consider `O=C(O)/C=C/c1c2ccc(=O)c(O)c-2oc2c(O)c(O)ccc12` [Compound 28], for which the “PInhibition (Experimental Data)” value on CD4 amounted to 4.566.
As for `O=C(O)/C=C/c1c2ccc(=O)c(O)c-2oc2c(O)c(O)ccc12` [Compound 29], on CD4, the IC50 was 14 µM and the “PInhibition (Experimental Data)” value is listed as 4.763. The IC50 in the data set on HIV-1 NL4-3 strain is 2 µM. For the same compound, the “Cytotoxicity in CEM-GFP cell line” value in the data set on CEM-GFP cell line is listed as “complete lack of cytotoxicity effect; also recorded: no cytotoxicity”. In the data set on HIV-1, the “inhibition of HIV-1 infection” value is on record as “inhibit HIV-1 infection”. In data set [2], the “binding to NC-p7” value was “bind”.
Regarding `Cc1cc(=O)c2c(o1)-c1c(cc(O)c(O)c1C(=O)O)OC2` [Compound 30], the “Inhibition at 100 μM (%)” value at CD4 (setting [3]) came to 6.48%. In addition, the “PInhibition (Experimental Data)” value at CD4 was determined as 2.841.
With `O=c1oc2c(cc1O)oc(=O)c1cc(O)c(O)c(O)c12` [Compound 31], on CD4 (setting [3]), the inhibition at 100 µM amounted to 16%.
Consider `O=C(O)CCC(=O)c1ccc(Oc2ccccc2)cc1` [Compound 32], for which the “PInhibition (Experimental Data)” value at CD4 came to 3.400.

A word on the inhibition: it is the percentage by which the read-out fell short of the control. As a reminder, the IC50 is the midpoint of a concentration-inhibition curve. As usually defined, the Inhibition is the share of the control response that was lost under treatment.
